The record followed here is PubChem BioAssay AID2305 (GlaxoSmithKline (GSK), 2010).

SMILES strings stand for the structures.

The assay relates to P. falciparum 3D7 growth, pLDH absorbance. The assay can be described thus: blood-stage malaria parasite growth potency – strain 3D7, dose response (AID 2305).
In turn, `COc1ccc2nccc(N3CCN(CCNCc4ccc5c(n4)NC(=O)CS5)CC3)c2n1` displayed an IC50 of 0.84 µM. Consider `CCOc1ccc(NC(=O)c2ccc(CN3CCCN(Cc4cccc(O)c4)CC3)cc2)cc1`, for which the IC50 was 1.31 µM.

`Nc1ncc(-c2ccc3nccc(-c4ccncc4)c3c2)cc1S(=O)(=O)N1CCCCC1` yielded a 50% inhibitory concentration (IC50) of 0.58 µM. In turn, `CC(CO)(CO)NCc1cc2ccc3ccsc3c2c2ccccc12` returned an IC50 of 0.23 µM. Next, `O=C(Nc1ccccc1-c1ccccc1)C1CCCN1C(=O)Nc1ccc(Cl)cc1` (stereo not drawn): 0.79 µM; `Cc1cccc2[nH]c(-c3cccc(-c4ccc(NC(=O)NCc5ccccc5)cc4)c3)nc12`: 0.23 µM; `CC1CN(Cc2cccc(C#N)c2)CCN1c1ccc(NC(=O)c2cccs2)cc1` (stereo not drawn): 0.68 µM. The value for `CC(C)(C)OC(=O)NCc1ccc(Nc2nnc(-c3ccc(OCC(=O)NCc4ccc(C(C)(C)C)cc4)c([N+](=O)[O-])c3)o2)cc1` was 0.8 µM; that for `N#Cc1ccc(CN2CCC(Oc3ccc(NC(=O)c4cccs4)cc3)CC2)cc1` was 1.03 µM; that for `COc1ccc(-n2nc(C)c3c2NC(=O)CC3c2ccccc2OCc2ccc(F)cc2)cc1` (stereo not drawn) was 0.85 µM.

With `Cc1cc(N(C)C2CCN(C)CC2)nc(Nc2ccc(Cl)cc2)n1`, the IC50 worked out at 0.29 µM. Compound `FC(F)(F)c1ccc2nccc(NN=Cc3ccc(Cl)cc3)c2c1` returned an IC50 of 0.79 µM. The value for `COc1ccccc1C1CCN(C2CCC(NC(=O)/C=C/c3ccc4c(c3)OC(F)(F)O4)CC2)CC1` (stereo not drawn) was 0.84 µM; that for `FC(F)(F)c1ccc2nc(-c3ccc(-c4cccc(CN5CCN(c6ccncc6)CC5)c4)cc3)[nH]c2c1` was 0.12 µM. `c1ccc(CN2CCN(c3cc(-c4cncc(-c5ccccc5)c4)nc(-c4ccccc4)n3)CC2)cc1` returned an IC50 of 1.04 µM.

Compound `Cc1ccc(CNC(=O)[C@H](CCCN)Nc2cc(C)nc(Nc3ccccc3)n2)cc1` yielded an IC50 of 1.29 µM. Next, `CCCC(=O)NC(NC(=S)Nc1ccc([N+](=O)[O-])cc1)C(Cl)(Cl)Cl` (stereo not drawn): 1.03 µM; `CC(=O)CCc1ccc(OCCN(Cc2ccccc2C(F)(F)F)c2ccc(C#N)c(C(F)(F)F)c2)cc1`: 0.27 µM; `CN1CCC(NCc2ccc(-c3cccc(S(=O)(=O)NCC4CCCO4)c3)cc2)CC1` (stereo not drawn): 0.94 µM. Compound `Cc1noc(-c2ccc(O)cc2O)c1-c1ccc2c(c1)OCCCO2` showed an IC50 of 0.89 µM. The value for `CCCOc1ccc(CNCCCCCCNCc2ccc(OCCC)c3ccccc23)c2ccccc12` was 0.41 µM. Regarding `N#Cc1ccc(S(=O)(=O)N2C(c3cccc([N+](=O)[O-])c3)C(C(=O)c3ccccc3)N(C3CCCCC3)C2c2cccc([N+](=O)[O-])c2)cc1` (stereo not drawn), the IC50 was 1.08 µM.

The compound `COc1c(C)cc(I)cc1CNCCCNc1cc(=O)c2ccccc2[nH]1` gave a half-inhibitory concentration (IC50) of 1.28 µM. Next, `CC(C)CNCc1cccc(-c2cccc(CN(C(=O)NC3CCCCC3)C3CCN(Cc4ccccc4)CC3)c2)c1`: 0.82 µM; `COc1cc(CN2CCC(N3CCc4cc(NC(=O)c5cc(C)on5)ccc43)C2)ccc1F` (stereo not drawn): 0.61 µM; `CS(=O)(=O)CCNCc1ccc(-c2ccc3c(Nc4ccc(Cl)cc4F)ccnc3c2)o1`: 0.67 µM.

The compound `CCN(CC)CCCN1CCN(C(=O)c2cccc(-c3noc(C(F)(F)F)n3)c2)CC1` showed a half-maximal inhibitory concentration (IC50) of 0.15 µM. The value for `CC(C)CCNCc1ccc(OCc2cccc(C(=O)Nc3ccccc3)c2)c(I)c1` was 0.29 µM; that for `O=C(NCCCCN1CCC(c2cccc3ccccc23)CC1)c1ccc(NC(=O)c2ccc(Cl)cc2)cc1` was 0.78 µM. In turn, `COc1cc(-c2ccccc2)ccc1C(=O)Nc1ccc2c(c1)N(C)CCC2` came in with an IC50 of 0.33 µM. Next, `CCN(CC)CCN(Cc1ccc(-c2ccc(C(F)(F)F)cc2)cc1)C(=O)Cn1cc(Cc2cnn(C)c2)c(=O)n2nc(-c3ccccc3)cc12`: 0.73 µM; `c1ncc(CCNc2nc(Nc3ccc4c(c3)OCO4)nc(NC3CCCC3)n2)[nH]1`: 1.15 µM. On to `NC1=NC(c2ccccc2)(c2ccccc2)C(=O)N1CCCCc1ccccn1`, for which the half-maximal inhibitory concentration (IC50) is 1.26 µM. The value for `CS(=O)(=O)c1ccccc1CNC(=O)c1cccc(-c2ccc(-c3nc4ccc(C(F)(F)F)cc4[nH]3)cc2)c1` was 0.81 µM; that for `O=S(=O)(NCCN1CCCC1)c1ccc(-c2cccc(CNCc3ccc(F)cc3)c2)s1` was 0.76 µM. The value for `CC(=O)c1ccc(S(=O)(=O)N2CCC(C(=O)Nc3ccccc3N3CCCC3)CC2)cc1` was 0.83 µM; that for `N#Cc1ccc(CN2CCC(Oc3ccc(NC(=O)c4cccs4)cc3)C2)cc1` (stereo not drawn) was 0.95 µM; that for `O=C(NCc1ccc(F)cc1)Nc1cccc(-c2ccc(-c3nc4ccc(F)cc4[nH]3)cc2)c1` was 0.23 µM.

As to `CCC(CC)n1c(COC)cc2c3c(N)nc(N)nc3ccc21`, the IC50 turned out to be 0.01 µM.

Compound `FC(F)(F)c1ccc(N2CCCN(Cc3cccc(-c4ccccc4CNCc4ccc5c(c4)OCO5)c3)CC2)nc1` had an IC50 of 1.19 µM. The value for `CCCCCOc1ccc(C=NNc2nc(-c3ccccc3)cc(=O)[nH]2)cc1` was 0.89 µM; that for `c1ccc(Oc2ccc(Nc3ccnc4ccc(-c5ccco5)cc34)cc2)cc1` was 0.93 µM; that for `CN1CCN(c2ccc3nccc(CCN4CCC(NCc5ccc6c(n5)NC(=O)CO6)CC4)c3n2)CC1` was 0.82 µM. For the compound `CCOc1c(CNCCCNc2cc(=O)c3ccccc3[nH]2)cc(Br)cc1OC`, the IC50 stood at 1.16 µM. As for `COc1cc(Cc2cnc(N)nc2N)cc(OC)c1OC`, the IC50 is 0.75 µM. Next, `O=C(NC1CCN(CCc2c[nH]c3ccc(F)cc23)CC1)c1ncc(-c2ccccc2)[nH]1`: 0.87 µM; `COc1ccc(CNc2ncnc3c2[nH]c2ccc(F)cc23)cc1`: 0.98 µM; `Nc1ncc(-c2ccsc2)cc1-c1nc2ccccc2[nH]1`: 0.85 µM.

For `CC(C)(C)c1ccc(NC(=O)c2ccc(CN3CCCN(Cc4ccsc4)CC3)cc2)cc1`, the half-inhibitory concentration (IC50) came to 0.72 µM. Next, `Cc1[nH]cc(Br)c(=O)c1-c1ccc(Oc2ccc(OC(F)(F)F)cc2)cc1`: 0.33 µM. Next, `COc1cccc(CCNCCCCCCNCCc2ccc(Cl)cc2)c1`: 1.01 µM; `Cc1ccc2nc(/N=C(\N)NC(=O)NC3CCCCC3)nc(C)c2c1`: 0.62 µM; `Cc1cccc2[nH]c(-c3ccc(-c4cccc(CNCc5ccccc5)c4)s3)nc12`: 0.74 µM. The value for `CN(C)CCOC(=O)C1(O)CCC2CC1C2(C)C` (stereo not drawn) was 0.98 µM; that for `CN(C)c1ccc(-c2nnc(Sc3ccc(C#N)c([N+](=O)[O-])c3)n2Cc2ccco2)cc1` was 0.85 µM; that for `CN(C)c1cccc(NC(=O)NC2N=C(c3ccccc3)c3ccccc3N(CC(=O)N(C)c3ccccc3)C2=O)c1` (stereo not drawn) was 0.95 µM. `CCc1c(C(=O)NC2CCC(N3CCC(c4ccccc4C)CC3)CC2)[nH]c2ccc(Br)cc12` (stereo not drawn) came in with an IC50 of 0.93 µM. The value for `O=C(NCCCN1CCC(NC(=O)c2ccc(-c3cccnc3)cc2)CC1)c1ccc(Cl)c(Cl)c1` was 0.85 µM; that for `Cc1nc(-c2nc(NCc3ccccn3)ncc2-c2ccsc2)sc1C` was 0.56 µM; that for `Cc1cnc2ccc(NS(=O)(=O)c3sc4ccc(Cl)cc4c3C)cc2c1N1CCNCC1` was 0.81 µM. Next, `COC(=O)c1ccc(C[C@@H](C)NC[C@H](O)c2cccc(OCc3ccccc3)c2)cc1`: 1.16 µM; `c1ccc(OCCOc2ccc(Nc3ccnc4cc5ccccc5cc34)cc2)cc1`: 0.25 µM. Next, `CCN(CC)CC(O)c1cc(-c2ccc(C)cc2)nc2c(C)cc(C)cc12` (stereo not drawn): 0.17 µM.

In general, IC50 refers to the point on the concentration scale where inhibition reaches its midpoint. The low end stands for greater potency, the high end for weaker potency.
